Measurements as given in US20080227131A1, “Signalling Assay and Cell Line” (GE HEALTHCARE UK LIMITED, priority 2005, published 2008).
Values belong to the compound of their own block, whether it stands above or below them.

How the values were obtained:
[1] = system: EGFP-MAPK14 fusion protein; test: EGFP-MAPK14 fusion protein translocation assay for activation of MAPK14 (N:C ratio) in stable SW1353 cells; type: cell-based, human
Procedure: During assay preparation and throughout the assay, background stress response was kept to a minimum; microplates, cells and solutions were maintained at 37° C., 5% CO2, and 95% relative humidity. All inhibitors and activators were added to cells in complete medium.
50 μl of the prepared test activator in complete medium and control compounds were added and incubated at 37° C., 5% CO2, and 95% relative humidity. For fixed cell assays, 150 μl 10% (v/v) formalin (4% formaldehyde) was added at room temperature for 20 min. Cells were washed twice with PBS and nuclei were stained with Hoechst (10 μM) in PBS prior to imaging.

[2] = system: phospho-(Thr180/Tyr182)-p38(MAPK14); test: Anti-phospho-p38 immunofluorescence assay in SW1353 cells; type: cell-based, human; conditions: 30 min treatment, fixed; n=8; read-out: EC50, immunofluorescence assay (Alexa647-anti-phospho-p38 signal)
Procedure: The temporal and biological response of the EGFP-MAPK14 assay was validated through co-analysis with a recognised assay for p38 (MAPK14) activation—an immunofluorescence assay targeting phospho-(Thr180/Tyr182)-p38(MAPK14). […] Cells were then washed (1% goat serum, 0.1% Tween in PBS), permeabilized (0.5% Triton X in wash buffer) for 15 minutes at room temperature and washed again. 50 μl of rabbit anti-phospho-p38 antibody at 1:200 (Zymed Laboratories, San Francisco, USA) was added and incubated for 1 hr at room temperature prior to two washes and the addition of 50 μl of goat-anti rabbit Alexa647 antibody (Molecular Probes) at 1:200 and incubation for 1 hr at room temperature. After 2 washes, cells were imaged in PBS to detect Hoechst, EGFP-MAPK14 and Alexa647 on an IN Cell Analyzer 1000 instrument.

Compound: COc1ccc(C[C@H]2NC[C@H](O)[C@H]2OC(C)=O)cc1 [anisomycin]
Nuclear accumulation of EGFP-MAPK14 fusion protein ([1]; live cells, 300 nM for 15 mins): clearly demonstrate significant nuclear accumulation

Compound: OC[C@@H](O)[C@@H](O)[C@H](O)[C@@H](O)CO [sorbitol]
Duration of stimulation after initial exposure ([1]; live cells, 0.4 M): at least 90 minutes
Nuclear accumulation of EGFP-MAPK14 fusion protein ([1]; live cells, 0.4 M for 15 mins): clearly demonstrate nuclear accumulation

EC50 [2]: 7.82 pM
Compound: IL-1β
EC80 ([1]; concentration used as activator in the inhibitor assay): 12 pM
Translocation of EGFP-MAPK14 signal from cytoplasm to nucleus ([1]; fixed cell assay, 316 pM for 30 minutes (FIG. 19)): clear translocation
Translocation of EGFP-MAPK14 signal from cytoplasm to nucleus ([1]; living cells, 12 pM): clear translocation
